Measured values taken from patent publication US7470715B2, “Estrogen modulators” (Pfizer Inc., priority 2005, dated 2008).
pEC50: −log10 of the molar value.

Experiments:
[1] = biological target: ligand binding domain of the estrogen receptor beta chain (ERβLBD) that contained a point mutation at amino acid residue 418 (pm418) (Homo sapiens, UniProt Q92731); assay: ER agonist cell assay (ERβ), Huh-7 co-transfection, luciferase; format: cell-based; conditions: for pEC50: Huh-7 cells co-transfected with pG5luc and ERβLBD(pm418), overnight incubation, luciferase; for ERβ % of Max E2 Response: percent of the maximum estradiol fold change, Huh-7, pG5luc and ERβLBD(pm418)
Experimental: (§1) The compounds ability to mimic the effects of estrogen on the estrogen receptor were determined in a whole cell assay as described immediately below.
(§2) Experimental Procedure for ER Agonist Cell Assay
(§3) • Cell line and plasmids: The human hepatoma cell line Huh-7 was used for co-transfections. Cells were maintained in culture medium and split when they reached 80-90% confluency. Three plasmids were routinely used in the assay. pG5luc contained the firefly luciferase gene and was obtained from Promega. […] Cell Culture Media and Reagents:
(§4) Culture medium: DMEM (phenol red free), 10% charcoal treated HyClone serum, 1% L-glutamine, and 1% penicillin/streptomycin
(§5) Transfection medium: DMEM (phenol red free) and 10% charcoal treated HyClone serum
(§6) Luciferase reagents: Dual-Glo Luciferase Kit (Promega cat #E2980) was used for determination of luciferase activity.
(§7) Transient transfections were preformed using the lipophilic reagent FuGENE 6 (Roche). Cells were split and seeded at 7.2×10^6/150 cm^2 flask in 20 mL of transfection medium. 5-6 hrs later cells were co-transfected with either pG5luc and ERαLBD or pG5luc and ERβLBD(pm418). Transfected cells grew overnight and were then used the next day.
(§8) Cells transfected 24 hrs earlier were harvested, counted, and seeded in wells containing compound at a density of 1×10^4 cells/well. […] Cells were incubated overnight at 37° C. and 5% CO2 in the presence of compound. The following day medium was aspirated from the wells and 100 ul of Dual-Glo™ Luciferase Reagent were added to each well. Plates were incubated at room temperature for 20 minutes and firefly luminescence was measured on a luminometer. Next, 50 ul of Dual-Gbo™ Stop & Glo® Reagent were added to each well and after 20 minutes at room temperature the Renilla luminescence was measured on a luminometer. Values from each well were normalized by dividing the firefly luminescence by the Renilla luminescence. Estradiol was used as the standard and run in each assay. The fold induction over background for each compound was compared to the maximum fold induction for estradiol in each assay. […] Those compounds that were not tested, or the data was unavailable are marked as NT.

[2] = biological target: T1, ligand binding domain of the estrogen receptor alpha chain (ERαLBD) (Homo sapiens, UniProt P03372); assay: ER agonist cell assay (ERα), Huh-7 co-transfection, luciferase; format: cell-based; conditions: for pEC50: Huh-7 cells co-transfected with pG5luc and ERαLBD, overnight incubation, luciferase; for ERα % of Max E2 Response: percent of the maximum estradiol fold change, Huh-7, pG5luc and ERαLBD
T1 construct: expressed in transfected cells; host or cells: Huh-7 human hepatoma cells, transient transfection with FuGENE 6
T1 sequence (P03372 311-547 limits assumed): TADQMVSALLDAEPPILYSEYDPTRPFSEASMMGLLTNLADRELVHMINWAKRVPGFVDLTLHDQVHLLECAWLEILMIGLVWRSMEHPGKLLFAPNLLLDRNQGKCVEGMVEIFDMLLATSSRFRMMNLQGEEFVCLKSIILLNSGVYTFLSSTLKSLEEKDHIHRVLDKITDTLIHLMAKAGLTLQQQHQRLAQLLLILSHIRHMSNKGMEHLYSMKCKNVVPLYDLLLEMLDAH
Experimental: as §1, §2, §3, §4, §5, §6, §7, §8

Row | SMILES | pEC50 [1] | ERβ % of Max E2 Response [1] [%] | pEC50 [2] | ERα % of Max E2 Response [2] [%]
1 | Oc1ccc(-c2noc(C3(COCC(F)(F)F)CC3)c2-c2ccccc2)cc1 [Example 11, 4-{4-Phenyl-5-[1-(2,2,2-trifluoro-ethoxymethyl)-cyclopropyl]-isoxazol-3-yl}-phenol] | 7.83 | 1.98 | 6.77 | 23.4
2 | CCCC(=O)OCC1(c2onc(-c3ccc(O)cc3)c2-c2ccccc2)CC1 [Example 58] | 7.01 | 92 | 6.86 | 59.9
3 | CC[C@@H](NCC1(c2onc(-c3ccc(O)cc3)c2-c2ccccc2)CC1)c1ccccc1 [Example 26, 4-[4-Phenyl-5-(1-{[(1R)-1-phenyl-propylamino]-methyl}-cyclopropyl)-isoxazol-3-yl]-phenol] |  | 1.03 | 7.18 | 20.9
4 | Oc1ccc(-c2noc(C3(CNc4cccc(C(F)(F)F)c4)CC3)c2-c2ccccc2)cc1 [Example 29, 4-(4-Phenyl-5-{1-[(3-trifluoromethyl-phenylamino)-methyl]-cyclopropyl}-isoxazol-3-yl)-phenol] |  | 0.601 |  | 11.4
5 | CC(C)CC(=O)OCC1(c2onc(-c3ccc(O)cc3)c2-c2ccccc2)CC1 [Example 55] | 7.63 | 32.6 | 8.24 | 55.8
6 | CC(C)C(O)C1(c2onc(-c3ccc(O)cc3)c2-c2ccccc2)CC1 (racemic) [Example 17, (±)-4-{5-[1-(1-Hydroxy-2-methyl-propyl)-cyclopropyl]-4-phenyl-isoxazol-3-yl}-phenol] | 6.90 | 3.82 | 7.46 | 56.8
7 | O=C(OCc1ccccc1)C1(c2onc(-c3ccc(O)cc3)c2-c2ccccc2)CC1 [Example 92, 1-[3-(4-Hydroxy-phenyl)-4-phenyl-isoxazol-5-yl]-cyclopropanecarboxylic acid benzyl ester] | < 5.00 | >1.04 | 7.24 | 19.7
8 | N#CCC1(c2onc(-c3ccc(O)cc3)c2-c2ccccc2)CC1 [Example 42, {1-[3-(4-Hydroxy-phenyl)-4-phenyl-isoxazol-5-yl]-cyclopropyl}-acetonitrile] | 6.70 | 6.17 | 7.42 | 51.7
9 | COCC(=O)OCC1(c2onc(-c3ccc(O)cc3)c2-c2ccccc2)CC1 [Example 53] | 7.15 | 79 | 7.34 | 85.4
10 | CC(=O)OCC1(c2onc(-c3ccc(O)cc3)c2-c2ccccc2)CC1 [Example 54] | 6.97 | 65.8 | 7.41 | 60.4
11 | COCCOC(=O)C1(c2onc(-c3ccc(O)cc3)c2-c2ccccc2)CC1 [Example 88, 1-[3-(4-Hydroxy-phenyl)-4-phenyl-isoxazol-5-yl]-cyclopropanecarboxylic acid 2-methoxy-ethyl ester] | < 5.00 | >3.41 | 7.53 | 29.2
12 | COCOCC1(c2onc(-c3ccc(O)cc3)c2-c2ccccc2)CC1 [Example 10, 4-[5-(1-Methoxymethoxymethyl-cyclopropyl)-4-phenyl-isoxazol-3-yl]-phenol] | 6.71 | 1.18 | 7.75 | 15.1
13 | CNCC1(c2onc(-c3ccc(O)cc3)c2-c2ccccc2)CC1 [Example 103, 4-[5-(1-methylaminomethyl-cyclopropyl)-4-phenyl-isoxazol-3-yl]-phenol] |  | 1.21 |  | 10.2
14 | CC(C)C(C)NCC1(c2onc(-c3ccc(O)cc3)c2-c2ccccc2)CC1 (racemic) [Example 24, (±)-4-(5-{1-[(1,2-Dimethyl-propylamino)-methyl]-cyclopropyl}-4-phenyl-isoxazol-3-yl)-phenol] | < 5.00 | >0.860 | 7.90 | 30.9
15 | Cc1noc(C)c1C(=O)OCC1(c2onc(-c3ccc(O)cc3)c2-c2ccccc2)CC1 [Example 56] | 7.51 | 3 | 7.95 | 42.1
16 | O=C(OCC1CCC1)C1(c2onc(-c3ccc(O)cc3)c2-c2ccccc2)CC1 [Example 95, 1-[3-(4-Hydroxy-phenyl)-4-phenyl-isoxazol-5-yl]-cyclopropanecarboxylic acid cyclobutylmethyl ester] | < 5.00 | >0.728 | 7.87 | 21.5
17 | CCOc1ccc(-c2nnc(C3(c4onc(-c5ccc(O)cc5)c4-c4ccccc4)CC3)o2)cc1 [Example 119, 4-(5-{1-[5-(4-ethoxyphenyl)-1,3,4-oxadiazol-2-yl]cyclopropyl}-4-phenylisoxazol-3-yl)phenol] | < 5.00 | >3.74 | 6.33 | 22.3
18 | Oc1ccc(-c2noc(C3(C(O)c4ccccc4)CC3)c2-c2ccccc2)cc1 (racemic) [Example 16, (±)-4-{5-[1-(Hydroxy-phenyl-methyl)-cyclopropyl]-4-phenyl-isoxazol-3-yl}-phenol] |  | 2.37 | 7.35 | 63.2
19 | CCOC(=O)C1(c2onc(-c3ccc(O)c(F)c3)c2-c2ccccc2)CC1 [Example 97, 1-[3-(3-Fluoro-4-hydroxy-phenyl)-4-phenyl-isoxazol-5-yl]-cyclopropanecarboxylic acid ethyl ester] |  | 1.08 |  | 19.7
20 | CSCC1(c2onc(-c3ccc(O)cc3)c2-c2ccccc2)CC1 [Example 38, 4-[5-(1-Methylsulfanylmethyl-cyclopropyl)-4-phenyl-isoxazol-3-yl]-phenol] | 6.13 | 6.6 | 5.95 | 11.4
21 | CCCCOC(=O)C1(c2onc(-c3ccc(O)cc3)c2-c2ccccc2)CC1 [Example 94, 1-[3-(4-Hydroxy-phenyl)-4-phenyl-isoxazol-5-yl]-cyclopropanecarboxylic acid butyl ester] | < 5.00 | >0.800 | 7.53 | 24.3
22 | CC(=O)SCC1(c2onc(-c3ccc(O)cc3)c2-c2ccccc2)CC1 [Example 37, Thioacetic acid S-{1-[3-(4-hydroxy-phenyl)-4-phenyl-isoxazol-5-yl]-cyclopropylmethyl} ester] | 6.52 | 4.3 | 6.69 | 30.7
23 | Oc1ccc(-c2noc(C3(CN4CCOCC4)CC3)c2-c2ccccc2)cc1 [Example 31, 4-[5-(1-Morpholin-4-ylmethyl-cyclopropyl)-4-phenyl-isoxazol-3-yl]-phenol] | 6.82 | 1.35 | 7.57 | 30
